{"source": "patent US20190015385A1", "about": "“VITAMIN E PHOSPHATE OR ACETATE FOR USE IN THE TREATMENT AND PREVENTION OF BIOFILM INFECTIONS” (priority 2016, published 2019)", "assay_in_all_cases": "Biofilm on coated titanium disks, CFU count (Example 2)", "assay_type_in_all_cases": "cell-based", "key": {"Pseudomonas aeruginosa": {"tested_on": "Pseudomonas aeruginosa", "conditions": "P. aeruginosa, vitamin E acetate 5 mg/cm^2, methylene blue 20 μg/cm^2", "excerpt": "(§1) This study used clinically relevant strains isolated from patients with prosthetic joint infections at the Microbiology Laboratory of the IRCCS Galeazzi Orthopaedic Institute (Italy). In particular, the following were selected: a strain of methicillin-resistant Staphylococcus epidermidis, a strain of methicillin-resistant Staphylococcus aureus and a strain of Pseudomonas aeruginosa. These strains were identified beforehand by means of biochemical assays (VITEK® 2 Compact, bioMérieux, Marcy l'Etoile, France) and stored at −80° C. prior to the analysis. Before beginning the study, all strains underwent testing to assess their ability to produce biofilms according to the spectrophotometric assay described by Christensen et al. (J Clin Microbiol 1985; 22: 996-1006).\n(§2) Sterile disks of sandblasted titanium with a diameter of 25 mm and a thickness of 5 mm (Adler Ortho, Cormano, Italy) were used as the substrate for the formation of biofilms. The disks were coated with sub-inhibitory concentrations of vitamin E acetate (5 mg/cm^2) or vitamin E acetate with the addition of methylene blue (20 μg/cm^2). […] Uncoated disks were used as negative controls. Subsequently, an overnight bacteria culture was resuspended in Brain Heart Infusion Broth (BHI; Biomérieux) at a density of 1.5×10^8 CFU/ml for each strain, and 200 microliters of microbial suspension were inoculated in sterile polystyrene plates with 6 wells containing coated and uncoated disks and 4.8 ml of BHI. The plates were incubated at 37° C. in an aerobic atmosphere for 24 and 48 hours. The test was performed in triplicate for each strain.\n(§3) Upon completion of the biofilm incubation time, the disks were washed twice with a sterile saline solution to eliminate non-adherent bacteria. The disks were then immersed in 5 ml of a 0.1 w/v % dithiothreitol solution (DTT, Sigma-Aldrich, Milan, Italy) and mechanically stirred for 15 minutes at room temperature. Suitable dilutions of the fluids obtained were inoculated on Tryptic Soy Agar (TSA, Merck) and incubated at 37° C. in an aerobic atmosphere for 24 hours for the CFU count."}, "[1]": {"tested_on": "methicillin-resistant Staphylococcus aureus", "conditions": "S. aureus, vitamin E acetate 5 mg/cm^2, methylene blue 20 μg/cm^2", "excerpt": "as §1, §2, §3"}, "[2]": {"tested_on": "methicillin-resistant Staphylococcus epidermidis", "conditions": "S. epidermidis, vitamin E acetate 5 mg/cm^2, methylene blue 20 μg/cm^2", "excerpt": "as §1, §2, §3"}}, "data": [{"compound": "CC(=O)Oc1c(C)c(C)c2c(c1C)CCC(C)(CCC[C@H](C)CCC[C@H](C)CCCC(C)C)O2", "note": "(stereo partly drawn) [Vitamin E acetate, α-tocopherol acetate]", "values": [{"measurement": "biofilm reduction with respect to the controls (in words)", "setting": "Pseudomonas aeruginosa; 24 hours", "value": "not after 24 hours"}, {"measurement": "biofilm reduction with respect to the controls (in words)", "setting": "Pseudomonas aeruginosa; 48 hours", "value": "effective after 48 hours"}, {"measurement": "biofilm reduction with respect to the controls (in words)", "setting": "[1]; 24 hours", "value": "significant"}, {"measurement": "biofilm reduction with respect to the controls (in words)", "setting": "[1]; 48 hours", "value": "significant"}, {"measurement": "biofilm reduction with respect to the controls (in words)", "setting": "[2]; 24 hours", "value": "significant"}, {"measurement": "biofilm reduction with respect to the controls (in words)", "setting": "[2]; 48 hours", "value": "significant"}]}]}
